Experimental data: US8357694B2, “Substituted 5,6-dihydro-6-phenylbenzo[F]isoquinolin-2-amine compounds” (ArQule, Inc., priority 2008, dated 2013)
Structures can show the parent of a compound that is named as a salt.

Key:
SNU-16 = assay: MTS assay, SNU-16; type: cell-based; conditions: Homo sapiens, SNU-16, SNU-16; read-out: MTS cell kill data (IC50-μM) SNU-16
Procedure: (§1) Cells were maintained at 37° C., 5% CO2 in DMEM media supplemented with 1% fetal bovine serum, penicillin/streptomycin and fungizone (Invitrogen). Cells were seeded into 96-well tissue culture plates at 3000 per well and cultured at 37° C. for 18 hours. Test compounds were dissolved and diluted to 300× in DMSO then diluted 1:40 in DMEM.

FGFR2 kinase = target: T1, FGFR2 kinase (Homo sapiens, UniProt P21802, N549H); assay: fluorescent ELISA FGFR2 kinase assay (biochemical); conditions: FGFR2 (N549H); read-out: Biochemical data (IC50-μM) FGFR2 (N549H)
T1 construct: purchased Millipore 14-742
Procedure: The enzymatic assays described herein are conducted according to the following procedures from commercially available reagents. In one, non limiting, example, a fluorescent ELISA assay is used to identify and characterize inhibitors of FGFR2 kinase as described herein. This heterogeneous assay utilizes a biotinylated peptide with a tyrosine motif as a substrate and an anti-phospho-tyrosine antibody to measure phosphorylation of the substrate. […] The reaction is incubated for 60 minutes. As the reaction proceeds, FGFR2 phosphorylates tyrosines in the peptide. […] Peptides are captured for 30 minutes at room temperature, the phosphorylation of peptides continues during this phase. The reaction is stopped by washing the streptavidin-coated plate 6 times with TBST. […] Unbound anti-phospho-tyrosine antibody is removed by washing the streptavidin-coated plate 6 times with TBST. […] Unbound secondary antibody is removed by washing the streptavidin-coated plate 6 times with TBST.

NCI-H1299 = assay: MTS cell kill, NCI-H1299; type: cell-based
Procedure: as §1

KATO III = assay: MTS assay, KATO III; type: cell-based
Procedure: as §1

PACA-2 = assay: MTS cell kill, PACA-2; type: cell-based
Procedure: as §1

DLD-1 = assay: MTS cell kill, DLD-1; type: cell-based
Procedure: as §1

MDA-MB-231 = assay: MTS cell kill, MDA-MB-231; type: cell-based
Procedure: as §1

T1 sequence (P21802 456-770 N549H limits assumed): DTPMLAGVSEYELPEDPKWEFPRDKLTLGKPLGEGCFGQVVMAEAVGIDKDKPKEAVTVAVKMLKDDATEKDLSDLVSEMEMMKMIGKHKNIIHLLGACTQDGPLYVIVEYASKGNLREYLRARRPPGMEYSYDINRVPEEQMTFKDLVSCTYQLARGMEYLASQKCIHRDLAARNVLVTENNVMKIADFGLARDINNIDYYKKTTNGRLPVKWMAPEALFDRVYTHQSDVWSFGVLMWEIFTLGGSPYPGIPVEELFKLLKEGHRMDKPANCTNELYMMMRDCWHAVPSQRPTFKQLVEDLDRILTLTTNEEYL

| melting point [°C] | IC50 (FGFR2 kinase) [µM] | SMILES | IC50 (SNU-16) [µM] | MTS cell kill data (% inhibition) NCI-H1299 (NCI-H1299) | MTS cell kill data (% inhibition) KATO III (KATO III) | MTS cell kill data (% inhibition) PACA-2 (PACA-2) | MTS cell kill data (% inhibition) DLD-1 (DLD-1) | MTS cell kill data (% inhibition) MDA-MB-231 (MDA-MB-231) |
| --- | --- | --- | --- | --- | --- | --- | --- | --- |
| 185 to 188 | 0.177 | Fc1ccc([C@@H]2Cc3cnc(Nc4ccc(CCN5CCCCC5)cc4)nc3-c3ccccc32)cc1 [Example 101, (S)-6-(4-fluorophenyl)-N-(4-(2-(piperidin-1-yl)ethyl)phenyl)-5,6-dihydrobenzo[h]quinazolin-2-amine] | 4.03 | – | – | – | – | – |
| – | 0.178 | Brc1ccc([C@@H]2Cc3cnc(Nc4ccc(CCN5CCCCC5)cc4)nc3-c3ccccc32)cc1 [Example 103, (S)-6-(4-bromophenyl)-N-(4-(2-(piperidin-1-yl)ethyl)phenyl)-5,6-dihydrobenzo[h]quinazolin-2-amine hydrochloride salt] | 3.57 | – | – | – | – | – |
| – | 0.499 | CCCCN(C)CCc1ccc(Nc2ncc3c(n2)-c2ccccc2[C@H](c2ccc(Cl)c(Cl)c2)C3)cc1 [Example 105, (S)-N-(4-(2-(butyl(methyl)amino)ethyl)phenyl)-6-(3,4-dichlorophenyl)-5,6-dihydrobenzo[h]quinazolin-2-amine hydrochloride salt] | 5.03 | – | – | – | – | – |
| – | 0.211 | COCCN1CCN(CCc2ccc(Nc3ncc4c(n3)-c3ccccc3[C@H](c3ccc(Cl)c(Cl)c3)C4)cc2)CC1 [Example 115, (S)-6-(3,4-dichlorophenyl)-N-(4-(2-(4-(2-methoxyethyl)piperazin-1-yl)ethyl)phenyl)-5,6-dihydrobenzo[h]quinazolin-2-amine hydrochloride] | 3.03 | – | – | – | – | – |
| – | 0.0359 | COCCNCCc1cc(Nc2ncc3c(n2)-c2ccccc2[C@H](c2ccccc2F)C3)ccc1F [Example 173, (R)-N-(4-fluoro-3-(2-(2-methoxyethylamino)ethyl)phenyl)-6-(2-fluorophenyl)-5,6-dihydrobenzo[h]quinazolin-2-amine hydrochloride salt] | 0.519 | – | – | – | – | – |
| – | – | CNc1ncc2c(n1)-c1ccccc1C1(CCN(C(=O)Nc3ccc(C#N)cc3)CC1)C2 [Example 397, N-(4-cyanophenyl)-2-(methylamino)-1′H,5H-spiro[benzo[h]quinazoline-6,4′-piperidine]-1′-carboxamide] | – | C (C = <50% inhibition) | A (A = 80-100% inhibition) | A (A = 80-100% inhibition) | B (B = 50-79% inhibition) | B (B = 50-79% inhibition) |
| – | – | CNc1ncc2c(n1)-c1ccccc1C1(CCN(C(=O)Nc3ccc(Oc4ccccc4)cc3)CC1)C2 [Example 406, 2-(methylamino)-N-(4-phenoxyphenyl)-1′H,5H-spiro[benzo[h]quinazoline-6,4′-piperidine]-1′-carboxamide] | – | A (A = 80-100% inhibition) | A (A = 80-100% inhibition) | A (A = 80-100% inhibition) | A (A = 80-100% inhibition) | A (A = 80-100% inhibition) |
| – | – | CNc1ncc2c(n1)-c1ccccc1C1(CCN(C(=O)Nc3cccc(Cl)c3)CC1)C2 [Example 408, N-(3-chlorophenyl)-2-(methylamino)-1′H,5H-spiro[benzo[h]quinazoline-6,4′-piperidine]-1′-carboxamide] | – | C (C = <50% inhibition) | A (A = 80-100% inhibition) | A (A = 80-100% inhibition) | A (A = 80-100% inhibition) | C (C = <50% inhibition) |
| – | – | N#Cc1cccc(NC(=O)N2CCC3(CC2)Cc2cnc(Nc4ccc(N5CCNCC5)cc4)nc2-c2ccccc23)c1 [Example 412, N-(3-cyanophenyl)-2-[(4-piperazin-1-ylphenyl)amino]-1′H,5H-spiro[benzo[h]quinazoline-6,4′-piperidine]-1′-carboxamide] | – | A (A = 80-100% inhibition) | A (A = 80-100% inhibition) | A (A = 80-100% inhibition) | A (A = 80-100% inhibition) | A (A = 80-100% inhibition) |
